This is an account of results in patent publication US5843755A, “Group of antitumor compounds and method for producing the same” (Ajinomoto Co., Inc., priority 1996, dated 1998).

Each structure is given as a SMILES string. ≈ marks a conversion by molar mass, not a printed value.

Data set [1] has as its system SW948. The data set can be described thus: Growth-inhibiting action on various cells (MTT), SW948. The following applies: 72 h, SW948, human colon cancer, 5 × 10^4 cells/ml, 3 days, read-out: IC50 (concentration at which cell proliferation is inhibited by 50%). It is filed as cell-based. The procedure: (§1) The proliferation-inhibiting action of FE399 compounds obtained by purification, on various cells was measured under a condition shown below.
(§2) After that, FE399-P1 or FE399-P2 was added thereto at an appropriate concentration, followed by further cultivation for 3 days. However, as for P388 and K562, the FE399 compound group was added immediately after preparation of cell culture liquids. Each of the cultures was added with 10 μl of a solution of MTT (3-(4,5-dimethyl-2-thiazolyl)-2,5-diphenyl-2H-tetrazolium.Br, 5 mg/ml Dulbecco PBS(-)), followed by cultivation at 37° C. for 4 hours in the carbon dioxide gas incubator. After that, each of the cultures was added with 50 μl of 0.01N hydrochloric acid/20% SDS, and then the absorbance was measured at 570 nm by using a microplate reader (reference wavelength: 630 nm).

Data set [2] has as its system K562T. Nature of the data set: Growth-inhibiting action on various cells (MTT), K562T. The format is cell-based. The settings on record: 72 h, human leukemia, 4 × 10^4 cells/ml, 3 days, read-out: IC50 (concentration at which cell proliferation is inhibited by 50%). The procedure: as §1, §2
Data set [3] has as its system Colon26. Nature of the data set: Growth-inhibiting action on various cells (MTT), Colon26. It is filed as cell-based. The following applies: Colon 26, 72 h, Colon26, mouse colon cancer, 5 × 10^4 cells/ml, 3 days, read-out: IC50 (concentration at which cell proliferation is inhibited by 50%). The procedure:
as §1, §2

The subject of data set [4] is CHO-K1. The data set can be described thus: Growth-inhibiting action on various cells (MTT), CHO-K1. The following applies: Cricetulus griseus, 72 h, CHO-K1, Chinese hamster ovary fibroblast, 1.5 × 10^4 cells/ml, 3 days, read-out: IC50 (concentration at which cell proliferation is inhibited by 50%). It is filed as cell-based. The procedure:
as §1, §2

In data set [5] the test system is P388. Nature of the data set: Growth-inhibiting action on various cells (MTT), P388. The settings on record: 72 h, P388, mouse leukemia, 2 × 10^4 cells/ml, 3 days, read-out: IC50 (concentration at which cell proliferation is inhibited by 50%). It is filed as cell-based. The procedure:
as §1, §2

Data set [6] is described as follows: Solubility. It is filed as physicochemical.
The nature of data set [7]: Stability of the tautomers. It is filed as physicochemical. The settings on record: tautomeric equilibrium in organic solvent such as acetonitrile, chloroform, acetic acid.
Data set [8] has as its system Mouse colon cancer cells (colon-26). Nature of the data set: Anticancer effect on solid cancer, colon-26 transplanted subcutaneously to CDFI mice. The settings on record: cisplatin 5 mg/kg on 7th, 11th and 15th day. It is filed as in vivo. The procedure: Mouse colon cancer cells (colon-26) subcultured in vivo subcutaneously in a CDFI mouse were excised from the subcutaneous portion of the mouse. The cells were minced and transplanted subcutaneously with a trocar to CDFI mice (female, 4 weeks old) so that the concentration was 10 mg/mouse. The day of the transplantation was designated as 0th day. On 7th day, the tumor size and the body weight were measured, and the mice were classified into groups with n=4. The tumor size was calculated as a tumor weight in accordance with the following arithmetic expression. [formula]
FE399 which was obtained by drying up the acetonitrile solution of FE399-1 isolated by the method described in Example 1 under a reduced precondition was administered to the mice described above in accordance with the following schedule. FE399 was administered intraperitoneally in an administration amount of 0.2 mL/mouse. FE399 was dissolved in dimethyl sulfoxide (DMSO) so that the concentration was 100 mg/ml. The concentration was adjusted with physiological saline containing 5% Tween 80 so that the administration amount was 4 mg/kg or 8 mg/kg. […]
The anticancer effect was evaluated on the basis of the tumor enhancement inhibitory ratio (IR) calculated from the tumor weight. IR was determined in accordance with the following arithmetic expression. […]

On to `CCCC1CCCCCCCC(=O)NC2CSSCC(NC2=O)C(=O)O1` (centres unmarked) [FE399-P1], for which the IC50 was 0.15 mg/L (≈ 0.373 µM) in data set [1]; 0.31 mg/L (≈ 0.77 µM) in data set [2]; 0.4 mg/L (≈ 0.994 µM) in data set [3]; 0.3 mg/L (≈ 0.745 µM) in data set [4]; 0.36 mg/L (≈ 0.894 µM) in data set [5]. In addition, the Solubility result in data set [6] (in dimethyl sulfoxide, chloroform, ethyl acetate, methanol, and acetonitrile) was “soluble”; in data set [6] (in pyridine and acetic acid), “readily soluble”; in data set [6] (in water) it was “scarcely soluble”. Further, the “Stability among the group of the compounds” value in data set [7] was “relatively stable”.

For the molecule `N.N.[Cl][Pt][Cl]` [cisplatin], the “IR (tumor enhancement inhibitory ratio)” value in data set [8] (15th day) was determined as 63; in data set [8] (21st day) it was 73.
